{"source": "patent US7598340B2", "about": "“Monoclonal antibody to a human MDR1 multidrug resistance gene product, and uses” (The Board of Trustees of the University of Illinois, priority 1992, dated 2009)", "key": {"BALB/c 3T3-1000 cells": {"system": "BALB/c 3T3-1000 cells", "assay": "Cell growth inhibition of BALB/c 3T3-1000 cells by vinblastine with mAb or verapamil", "type": "cell-based, mouse", "details": "350 ng/ml vinblastine"}, "[1]": {"system": "BALB/c 3T3-1000 fibroblasts", "assay": "Colony formation by BALB/c 3T3-1000 fibroblasts in the presence of vinblastine", "type": "cell-based, mouse", "details": "BALB/c 3T3-1000 cell line", "method": "The effects of antibody preparations of the invention on drug cytotoxicity may be assessed by incubating suspensions of MDR and control cells with the antibody preparation, then testing for cell growth inhibition by colony formation, plating efficiency, and/or MTT growth inhibition assay^13,16 in the absence and presence of an anti-cancer drug such as one of the vinca alkaloids. BALB/c 3T3-1000 fibroblasts are particularly suitable for plating efficiency assays and the MDR cell line K562/inf for the growth inhibition assay. The effects of antibody preparations on drug cytotoxicity may be assayed by incubating cell suspensions with a purified antibody preparation, and plating cells in microtitre plate wells for colony or growth inhibition assays in the presence of the antibody preparation.\nAll drugs were obtained from Sigma, except for G418 (Gibco) and taxol (gift of Dr. S. B. Horwitz). Colony formation and MTT assays for cell growth inhibition were carried out by art-recognized procedures. […]\nIn the system described in FIG. 3B, we examined the effects of different mAb on colony formation by BALB/c 3T3-1000 fibroblasts in the presence of vinblastine. […] Colonies were fixed with methanol or ethanol and stained with crystal violet on day 11, and scored for plating efficiency."}}}
{"smiles": "COc1ccc(CCN(C)CCCC(C#N)(c2ccc(OC)c(OC)c2)C(C)C)cc1OC", "note": "(centres unmarked) [Verapamil, verapamil]", "values": [{"measurement": "concentration achieving the same potentiation of vinblastine toxicity", "setting": "BALB/c 3T3-1000 cells", "result": 3, "unit": "µM"}]}
{"smiles": "CC[C@]1(O)C[C@@H]2CN(CCc3c([nH]c4ccccc34)[C@@](C(=O)OC)(c3cc4c(cc3OC)N(C)[C@H]3[C@@](O)(C(=O)OC)[C@H](OC(C)=O)[C@]5(CC)C=CCN6CC[C@]43[C@@H]65)C2)C1", "note": "[vinblastine]", "values": [{"measurement": "ID90 of vinblastine", "setting": "[1]", "result": 0.35, "unit": "µg/mL"}]}
